{"source": "PubChem BioAssay AID2060898", "about": "(Molecular Pharmacology Branch, DTP, NCI, 2025);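 further: spheroids exposed to agents for seven days before viability readout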;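 on viability, T/C: 100% = DMSO vehicle control viability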", "test_system": "616215-338-R-J1-PDC complex spheroid viability", "assay": "Anticancer human tumor 616215-338-R-J1-PDC patient-derived colon adenocarcinoma cell line growth inhibition [RAS]", "settings": "for IC50: curve of first compound; for viability, T/C: stronger effect = lower value", "outline": "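Tumour cells grown as complex spheroids with HUVEC endothelial cells and mesenchymal stem cells, treated with RAS pathway inhibitor combinations. Each agent spans half-log steps from near clinical Cmax, or 10 microM where Cmax is unknown.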", "key": {"[1]": {"settings": "second compound 0.00316 µM, first compound 0.0316 µM"}, "[2]": {"settings": "second compound 0.00316 µM, first compound 0.1 µM"}, "[3]": {"settings": "second compound 0.01 µM, first compound 0.0316 µM"}, "[4]": {"settings": "second compound 0.01 µM, first compound 0.1 µM"}, "[5]": {"settings": "second compound 0.0316 µM, first compound 0.0316 µM"}, "[6]": {"settings": "second compound 0.0316 µM, first compound 0.1 µM"}, "[7]": {"settings": "second compound 0.1 µM, first compound 0.0316 µM"}, "[8]": {"settings": "second compound 0.1 µM, first compound 0.1 µM"}, "[9]": {"settings": "second compound 0.316 µM, first compound 0.0316 µM"}, "[10]": {"settings": "second compound 0.316 µM, first compound 0.1 µM"}, "[11]": {"settings": "second compound 1 µM, first compound 0.0316 µM"}, "[12]": {"settings": "second compound 1 µM, first compound 0.1 µM"}}, "data": [{"smiles": "CC(C)NCC(C(=O)N1CCN(c2ncnc3c2C(C)CC3O)CC1)c1ccc(Cl)cc1", "note": "(centres undefined) + C=CC(=O)N1CCN(c2nc(OCC3CCCN3C)nc3c(F)c(-c4nc(N)cc(C)c4C(F)(F)F)c(Cl)cc23)C(C)C1", "values": [{"measurement": "IC50", "setting": "second compound 0.00316 µM", "result": 9.08, "unit": "µM"}, {"measurement": "IC50", "setting": "second compound 0.01 µM", "result": 9.02, "unit": "µM"}, {"measurement": "IC50", "setting": "second compound 0.0316 µM", "result": "> 10", "unit": "µM"}, {"measurement": "IC50", "setting": "second compound 0.1 µM", "result": 10, "unit": "µM"}, {"measurement": "IC50", "setting": "second compound 0.316 µM", "result": 9.74, "unit": "µM"}, {"measurement": "IC50", "setting": "second compound 1 µM", "result": 9.55, "unit": "µM"}, {"measurement": "viability, T/C", "setting": "[1]", "result": 97.1, "unit": "%"}, {"measurement": "viability, T/C", "setting": "[2]", "result": 110, "unit": "%"}, {"measurement": "viability, T/C", "setting": "second compound 0.00316 µM, first compound 0.316 µM", "result": 106, "unit": "%"}, {"measurement": "viability, T/C", "setting": "second compound 0.00316 µM, first compound 1 µM", "result": 112, "unit": "%"}, {"measurement": "viability, T/C", "setting": "second compound 0.00316 µM, first compound 3.16 µM", "result": 95, "unit": "%"}, {"measurement": "viability, T/C", "setting": "second compound 0.00316 µM, first compound 10 µM", "result": 45.9, "unit": "%"}, {"measurement": "viability, T/C", "setting": "[3]", "result": 105, "unit": "%"}, {"measurement": "viability, T/C", "setting": "[4]", "result": 98.1, "unit": "%"}, {"measurement": "viability, T/C", "setting": "second compound 0.01 µM, first compound 0.316 µM", "result": 102, "unit": "%"}, {"measurement": "viability, T/C", "setting": "second compound 0.01 µM, first compound 1 µM", "result": 116, "unit": "%"}, {"measurement": "viability, T/C", "setting": "second compound 0.01 µM, first compound 3.16 µM", "result": 95.1, "unit": "%"}, {"measurement": "viability, T/C", "setting": "second compound 0.01 µM, first compound 10 µM", "result": 45.5, "unit": "%"}, {"measurement": "viability, T/C", "setting": "[5]", "result": 110, "unit": "%"}, {"measurement": "viability, T/C", "setting": "[6]", "result": 114, "unit": "%"}, {"measurement": "viability, T/C", "setting": "second compound 0.0316 µM, first compound 0.316 µM", "result": 105, "unit": "%"}, {"measurement": "viability, T/C", "setting": "second compound 0.0316 µM, first compound 1 µM", "result": 115, "unit": "%"}, {"measurement": "viability, T/C", "setting": "second compound 0.0316 µM, first compound 3.16 µM", "result": 99.9, "unit": "%"}, {"measurement": "viability, T/C", "setting": "second compound 0.0316 µM, first compound 10 µM", "result": 54, "unit": "%"}, {"measurement": "viability, T/C", "setting": "[7]", "result": 111, "unit": "%"}, {"measurement": "viability, T/C", "setting": "[8]", "result": 106, "unit": "%"}, {"measurement": "viability, T/C", "setting": "second compound 0.1 µM, first compound 0.316 µM", "result": 108, "unit": "%"}, {"measurement": "viability, T/C", "setting": "second compound 0.1 µM, first compound 1 µM", "result": 107, "unit": "%"}, {"measurement": "viability, T/C", "setting": "second compound 0.1 µM, first compound 3.16 µM", "result": 98.2, "unit": "%"}, {"measurement": "viability, T/C", "setting": "second compound 0.1 µM, first compound 10 µM", "result": 50, "unit": "%"}, {"measurement": "viability, T/C", "setting": "[9]", "result": 103, "unit": "%"}, {"measurement": "viability, T/C", "setting": "[10]", "result": 106, "unit": "%"}, {"measurement": "viability, T/C", "setting": "second compound 0.316 µM, first compound 0.316 µM", "result": 104, "unit": "%"}, {"measurement": "viability, T/C", "setting": "second compound 0.316 µM, first compound 1 µM", "result": 108, "unit": "%"}, {"measurement": "viability, T/C", "setting": "second compound 0.316 µM, first compound 3.16 µM", "result": 93.4, "unit": "%"}, {"measurement": "viability, T/C", "setting": "second compound 0.316 µM, first compound 10 µM", "result": 48.5, "unit": "%"}, {"measurement": "viability, T/C", "setting": "[11]", "result": 104, "unit": "%"}, {"measurement": "viability, T/C", "setting": "[12]", "result": 94.9, "unit": "%"}, {"measurement": "viability, T/C", "setting": "second compound 1 µM, first compound 0.316 µM", "result": 103, "unit": "%"}, {"measurement": "viability, T/C", "setting": "second compound 1 µM, first compound 1 µM", "result": 117, "unit": "%"}, {"measurement": "viability, T/C", "setting": "second compound 1 µM, first compound 3.16 µM", "result": 104, "unit": "%"}, {"measurement": "viability, T/C", "setting": "second compound 1 µM, first compound 10 µM", "result": 47.7, "unit": "%"}]}, {"smiles": "CC(C)n1nc(-c2ccc3oc(N)nc3c2)c2c(N)ncnc21", "note": "+ C=CC(=O)N1CCN(c2nc(OCC3CCCN3C)nc3c(F)c(-c4nc(N)cc(C)c4C(F)(F)F)c(Cl)cc23)C(C)C1", "values": [{"measurement": "IC50", "setting": "second compound 0.00316 µM", "result": "> 0.1", "unit": "µM"}, {"measurement": "IC50", "setting": "second compound 0.01 µM", "result": "> 0.1", "unit": "µM"}, {"measurement": "IC50", "setting": "second compound 0.0316 µM", "result": "> 0.1", "unit": "µM"}, {"measurement": "IC50", "setting": "second compound 0.1 µM", "result": "> 0.1", "unit": "µM"}, {"measurement": "IC50", "setting": "second compound 0.316 µM", "result": "> 0.1", "unit": "µM"}, {"measurement": "IC50", "setting": "second compound 1 µM", "result": "> 0.1", "unit": "µM"}, {"measurement": "viability, T/C", "setting": "second compound 0.00316 µM, first compound 0.000316 µM", "result": 107, "unit": "%"}, {"measurement": "viability, T/C", "setting": "second compound 0.00316 µM, first compound 0.001 µM", "result": 109, "unit": "%"}, {"measurement": "viability, T/C", "setting": "second compound 0.00316 µM, first compound 0.00316 µM", "result": 99.9, "unit": "%"}, {"measurement": "viability, T/C", "setting": "second compound 0.00316 µM, first compound 0.01 µM", "result": 119, "unit": "%"}, {"measurement": "viability, T/C", "setting": "[1]", "result": 120, "unit": "%"}, {"measurement": "viability, T/C", "setting": "[2]", "result": 77.9, "unit": "%"}, {"measurement": "viability, T/C", "setting": "second compound 0.01 µM, first compound 0.000316 µM", "result": 100, "unit": "%"}, {"measurement": "viability, T/C", "setting": "second compound 0.01 µM, first compound 0.001 µM", "result": 111, "unit": "%"}, {"measurement": "viability, T/C", "setting": "second compound 0.01 µM, first compound 0.00316 µM", "result": 107, "unit": "%"}, {"measurement": "viability, T/C", "setting": "second compound 0.01 µM, first compound 0.01 µM", "result": 119, "unit": "%"}, {"measurement": "viability, T/C", "setting": "[3]", "result": 117, "unit": "%"}, {"measurement": "viability, T/C", "setting": "[4]", "result": 70.7, "unit": "%"}, {"measurement": "viability, T/C", "setting": "second compound 0.0316 µM, first compound 0.000316 µM", "result": 105, "unit": "%"}, {"measurement": "viability, T/C", "setting": "second compound 0.0316 µM, first compound 0.001 µM", "result": 109, "unit": "%"}, {"measurement": "viability, T/C", "setting": "second compound 0.0316 µM, first compound 0.00316 µM", "result": 113, "unit": "%"}, {"measurement": "viability, T/C", "setting": "second compound 0.0316 µM, first compound 0.01 µM", "result": 111, "unit": "%"}, {"measurement": "viability, T/C", "setting": "[5]", "result": 114, "unit": "%"}, {"measurement": "viability, T/C", "setting": "[6]", "result": 71.7, "unit": "%"}, {"measurement": "viability, T/C", "setting": "second compound 0.1 µM, first compound 0.000316 µM", "result": 110, "unit": "%"}, {"measurement": "viability, T/C", "setting": "second compound 0.1 µM, first compound 0.001 µM", "result": 100, "unit": "%"}, {"measurement": "viability, T/C", "setting": "second compound 0.1 µM, first compound 0.00316 µM", "result": 111, "unit": "%"}, {"measurement": "viability, T/C", "setting": "second compound 0.1 µM, first compound 0.01 µM", "result": 116, "unit": "%"}, {"measurement": "viability, T/C", "setting": "[7]", "result": 109, "unit": "%"}, {"measurement": "viability, T/C", "setting": "[8]", "result": 72.2, "unit": "%"}, {"measurement": "viability, T/C", "setting": "second compound 0.316 µM, first compound 0.000316 µM", "result": 109, "unit": "%"}, {"measurement": "viability, T/C", "setting": "second compound 0.316 µM, first compound 0.001 µM", "result": 108, "unit": "%"}, {"measurement": "viability, T/C", "setting": "second compound 0.316 µM, first compound 0.00316 µM", "result": 111, "unit": "%"}, {"measurement": "viability, T/C", "setting": "second compound 0.316 µM, first compound 0.01 µM", "result": 109, "unit": "%"}, {"measurement": "viability, T/C", "setting": "[9]", "result": 129, "unit": "%"}, {"measurement": "viability, T/C", "setting": "[10]", "result": 71.3, "unit": "%"}, {"measurement": "viability, T/C", "setting": "second compound 1 µM, first compound 0.000316 µM", "result": 109, "unit": "%"}, {"measurement": "viability, T/C", "setting": "second compound 1 µM, first compound 0.001 µM", "result": 99.6, "unit": "%"}, {"measurement": "viability, T/C", "setting": "second compound 1 µM, first compound 0.00316 µM", "result": 118, "unit": "%"}, {"measurement": "viability, T/C", "setting": "second compound 1 µM, first compound 0.01 µM", "result": 118, "unit": "%"}, {"measurement": "viability, T/C", "setting": "[11]", "result": 115, "unit": "%"}, {"measurement": "viability, T/C", "setting": "[12]", "result": 70, "unit": "%"}]}]}
